Measurements from ChEMBL document CHEMBL1201862, “PubChem BioAssay data set” (2004).
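Growth conditions: 96-well plates. Treatment: test compound, 48 hours, 5 concentrations. Analysis: linear interpolation between bracketing concentrations; unreached endpoints set to highest concentration. Abbreviation: GI50, concentration required for 50% inhibition of growth.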 Active and inactive are the calls of the source. No stated cut-off is given here; in the data, active = GI50 up to about 1.1 µM and inactive = higher.

Tests used:
Experiment in all cases: growth of human tumour cells (NCI), 48 h
EKVX = tested on: EKVX
NCI-H226 = tested on: NCI-H226
OVCAR-3 = tested on: OVCAR-3
NCI-H460 = tested on: NCI-H460
SF-295 = tested on: SF-295
CCRF-CEM = tested on: CCRF-CEM
MDA-MB-435 = tested on: MDA-MB-435
COLO 205 = tested on: COLO 205
MOLT-4 = tested on: MOLT-4
A549 = tested on: A549
DU-145 = tested on: DU-145
OVCAR-5 = tested on: OVCAR-5
UO-31 = tested on: UO-31
SK-MEL-2 = tested on: SK-MEL-2
HOP-62 = tested on: HOP-62
NCI-H23 = tested on: NCI-H23
LOX IMVI = tested on: LOX IMVI
MDA-N = tested on: MDA-N
KM12 = tested on: KM12

Measured: GI50

COc1cc(C(=O)C2CC3(CCC2(O)c2cc(OC)c(OC)c(OC)c2)CC(=O)Nc2ccccc2C3=O)cc(OC)c1OC (stereo unspecified)
inactive: EKVX > 100 µM | NCI-H226 > 100 µM | OVCAR-3 > 100 µM | NCI-H460 21.5 µM | SF-295 98.2 µM | CCRF-CEM 37.3 µM | MDA-MB-435 > 100 µM | COLO 205 26.5 µM | MOLT-4 33 µM | A549 > 100 µM | DU-145 > 100 µM | OVCAR-5 > 100 µM | UO-31 33.7 µM | SK-MEL-2 89.9 µM | HOP-62 > 100 µM | NCI-H23 88.9 µM | LOX IMVI 67.6 µM | MDA-N > 100 µM

CCOC(=O)c1csc(NC(=O)C(C)N2CCCCC2)n1 (stereo unspecified)
inactive: EKVX > 100 µM | OVCAR-3 > 100 µM | NCI-H460 > 100 µM | SF-295 > 100 µM | CCRF-CEM > 100 µM | MDA-MB-435 > 100 µM | COLO 205 > 100 µM | MOLT-4 > 100 µM | A549 > 100 µM | DU-145 > 100 µM | OVCAR-5 > 100 µM | KM12 > 100 µM | UO-31 > 100 µM | SK-MEL-2 > 100 µM | HOP-62 > 100 µM | NCI-H23 > 100 µM | LOX IMVI > 100 µM | MDA-N > 100 µM

CCC(=O)OCN(C)c1nc(N(C)COC(=O)CC)nc(N(C)COC(=O)CC)n1
inactive: NCI-H226 85.5 µM | OVCAR-3 > 100 µM | NCI-H460 33.4 µM | SF-295 > 100 µM | CCRF-CEM 24.8 µM | MDA-MB-435 > 100 µM | COLO 205 24.3 µM | MOLT-4 20.8 µM | DU-145 37 µM | OVCAR-5 > 100 µM | KM12 34.5 µM | UO-31 56.6 µM | SK-MEL-2 18.2 µM | HOP-62 > 100 µM | NCI-H23 > 100 µM | LOX IMVI 18 µM | MDA-N 33.3 µM

CCOC(=O)c1sc2nc(SC)nc3c2c1NC(=O)CN3c1cccc(F)c1
inactive: EKVX 46 µM | NCI-H226 6.93 µM | OVCAR-3 19.7 µM | NCI-H460 26.4 µM | SF-295 16.3 µM | MDA-MB-435 27.5 µM | COLO 205 17.5 µM | MOLT-4 30 µM | A549 14 µM | DU-145 26.7 µM | OVCAR-5 45 µM | KM12 80.5 µM | UO-31 15.5 µM | SK-MEL-2 27.4 µM | HOP-62 14.5 µM | NCI-H23 27 µM | LOX IMVI 17.8 µM | MDA-N 29.8 µM
